2 compounds from patent publication US8889723B2, “Aminoalkyloxazole and aminoalkylthiazolecarboxylic acid amides as regeneration-promoting substances for sensory organs and post-mitotic tissues” (EMC microcollections GmbH, priority 2010, dated 2014) can be followed below.

“Also recorded” adds a separate entry of the source.

The subject of one data set is organ of Corti. Briefly: In vivo administration after acoustic trauma: regeneration of sensory hair cells (BrdU, myosin VI, DAPI, Sox2 labelling). The conditions noted are these: adult guinea pig, impulse noise damage, 200 μM in Alzet pump intracochlear over 6 weeks, FIG. 7. From the text: Acute acoustic damage resulting in a loss of sensory hair cells of the organ of Corti, in particular in the region of the outer sensory hair cells, was caused by impulse noise. The compound N-cyclohexyl-2-[1-amino-2-(1H-indol-3-yl)ethyl]α-azole-4-carboxylic acid amide (3) was then continuously administered locally from a miniosmotic pump (Alzet®), subcutaneously implanted, via choleostomy directly into the scala tympani of the cochlea. The dosage of the substance in the pump was correspondingly higher at 200 μM, taking into account an expected dilution effect in the perilymph.
Administration was over a period of 6 weeks, with a subsequent waiting interval of 2 weeks. In parallel, BrdU was administered via the drinking water or the miniosmotic pump to label proliferating cells in the organ of Corti.
After removal of the organ of Corti, immunohistochemical triple labelling with BrdU (cell division), myosin VI (sensory hair cells) and DAPI (staining of the nuclei) FIGS. 7A to 7E and also with Sox2 (pluripotent supportive cells) was carried out.

The subject of data set [1] is differentiated otic epithelium islands from stem cells isolated from the postnatal organ of Corti. Briefly: In vitro cell culture assay: BrdU-positive cells (proliferation), screening and dose/activity analysis. The format is cell-based, mouse. The procedure: (§1) First, starting with stem cells with otic development potential isolated from the postnatal organ of Corti of the mouse, typical cellular cluster “spheres” were grown in a suspension culture. Under culture conditions optimized compared to known processes (Oshima et al., 2007; Senn et al., 2007) in a DMEM/F12 medium (Dulbecco's Modified Eagle Medium) supplemented with B27 and N2, about 1600 solid spheres per organ of Corti could be generated from the stem cell culture with added FGF (fibroblast growth factor) and IGF (insulin-like growth factor) (FIG. 1H).
(§2) To this end, the cultivated otospheres were differentiated in a second step under adherent culture conditions on an ornithine/fibronectin surface to give monolayer epithelium islands relatively similar to the original sensory epithelium.
If the expression of stem cell markers induced by the compounds is in the end also associated with an increased proliferation of the cells in culture was checked by quantification of the BrdU-positive cells. During substance administration the culture was incubated for 5 h with the thymidine analog BrdU. During the S phase of the cell cycle, cell division results in incorporation of BrdU. If one of the substances stimulates cell division, this can be detected and visualized with an antibody directed against BrdU.
In a dose/activity analysis, the optimum concentration range in which this compound unfolds its maximum regeneration biological effect in the cell culture was determined.
To this end, incorporation of BrdU in the stem cell-based in vitro cell culture assay was determined at 4 concentrations between 0.3 μM and 10 μM in the culture medium. […] From a concentration of 3 μM, the saturation level of about 9% BrdU-positive cells is already reached (FIG. 5).

Data set [2] concerns supportive cells of the organ of Corti. Briefly: In vitro organ culture model: BrdU incorporation after neomycin damage. The format is cell-based, mouse. The conditions noted are these: 5 μM, 4 days, after neomycin (1 mM) damage, FIG. 6. From the text: To confirm the effects observed in the cell culture assay in the native organ, i.e., in situ in the complex cellular structure of the organ of Corti, use was made of a form of organ culture where the tissue to be cultivated, in the present case the entire inner ear of the mouse, was located in a rotating cylinder filled with culture medium (Hahn et al., 2008). Before the start of the experiment, the cochlea was opened basally and apically in the region of the scala tympani. In this manner, it was possible to minimize the effect of gravity and at the same time to achieve optimum gas and nutrient exchange between the tissue of the organ of Corti and the culture medium. Under these conditions, the explantate could be kept in culture for longer compared to a stationary culture.
(§3) After administration of the ototoxic aminoglycoside antibiotic neomycin (1 mM), ⅔of all sensory hair cells suffered cell death within 24 hours. Only in the apical regions of the cochlea, some sensory hair cells survived, the number of which declined further during the course of the experiment as a result of the initial damage. After removal of the neomycin from the medium, the remaining supportive cells could be cultivated further.
BrdU was then added to the culture medium simultaneously with the compounds (5 μM), and after 4 days the proliferation was quantified by BrdU incorporation.
A general note: Dividing cells build labelled thymidine or BrdU into new DNA.

The subject of data set [3] is differentiated otic epithelium islands from stem cells isolated from the postnatal organ of Corti. Briefly: In vitro cell culture assay: proportion of Sox2-positive cells (dedifferentiation). The data set is classed as cell-based, mouse. Conditions: screening assay, FIG. 3; p<0.05, n=10. The procedure:
as §1, §2
For screening, firstly the proportion of Sox2-positive cells in the in vitro culture was determined. Sox2 is a stem cell marker, which is also expressed during ontogenesis of the organ of Corti. It is thought to have an important role in the pluripotency of embryonal stem cells and during induction of pluripotent stem cells from differentiated cells (Takahashi and Yamanaka, 2006). Accordingly, Sox2 is an important marker, in particular in the context of an induced dedifferentiation/reprogramming of cells.

The next data set relates to sensory hair cells. The data set is described as follows: Ototoxic damage of sensory hair cells in organ culture. The data set is classed as cell-based, mouse. Conditions: 1 mM, within 24 hours. The procedure:
as §3

As to `N[C@@H](Cc1c[nH]c2ccccc12)c1nc(C(=O)NC2CCCCC2)co1` [Compound 3, N-cyclohexyl-2-[1-amino-2-(1H-indol-3-yl)ethyl]oxazole-4-carboxylic acid amide], the “regeneration of sensory hair cells based on cell division (BrdU labelling)” value in the data set with organ of Corti is “BrdU-labelled supportive cells and sensory hair cells were preferably demonstrated in the regions of the organ of Corti damaged by acoustic trauma; also recorded: regeneration of sensory hair cells on the basis of cell divisions can be induced”. Moreover, the “BrdU incorporation in dose/activity analysis” value is “no significant effect” in data set [1] (0.3 μM in culture medium, FIG. 5) and “the mean was already elevated” in data set [1] (1 μM in culture medium, FIG. 5). Also, in data set [1] (adhesion culture, p<0.05, n=10, FIG. 5), the “BrdU incorporation when concentration increased from 0.3 μM to 3 μM” value was “increased to a significantly higher level”. For the same compound, in data set [1] (adhesion culture, up to 10 μM, FIG. 5), the “BrdU incorporation at concentrations higher than 3 μM” value was “could not be increased any further”. The “BrdU-positive cells, saturation level in dose/activity analysis” value in data set [1] (from 3 μM in culture medium, FIG. 5) is recorded as “about 9%”. Further, the “proportion of BrdU-positive cells (induced proliferation)” value in data set [1] (screening assay, 5 h incubation with BrdU, FIG. 4) is listed as 4.8%. Besides, the “BrdU incorporation, result in words” value in data set [1] (screening assay, 5 h incubation with BrdU, p<0.05, n=10) is “significant positive results”. Besides, the “BrdU incorporation into supportive cells (proliferation)” value in data set [2] was “BrdU incorporation could be demonstrated in the furthest laterally orientated Deiter's cells; also recorded: new cells in the sense of a regeneration by cell division of supportive cells have been formed; also recorded: BrdU was incorporated into laterally orientated Deiter's cells”; in data set [2] (listed as substance 33) it was “BrdU was incorporated into individual inner phalangeal cells and inner border cells”. Moreover, in data set [3], the “proportion of Sox2-expressing cells compared with the differentiation control” value was “more than doubled; also recorded: significant positive results”.

Turning to neomycin, in the data set with sensory hair cells, the “proportion of all sensory hair cells that suffered cell death” value is listed as “⅔”.
